Laboratory results taken from patent US11542240B2, “STK19 inhibitors for treatment of cancer” (TRUSTEES OF BOSTON UNIVERSITY, priority 2018, dated 2023).
Several values for one entry are separate records, joined by “and”; a condition that tells them apart may be missing. Equal values may be shown once. Read-outs that look alike come from different tables or passages of the source.

Key:
Assay in all cases: biochemical
Assay type in all cases: binding
[1] = biological target: panel of 468 diverse kinases (Homo sapiens, UniProt Q06418); settings: TYRO3; 1000 nM; read-out: Percent Control
panel of 468 diverse kinases (Homo sapiens, UniProt Q06418), sequence (Q06418 41-890 limits assumed): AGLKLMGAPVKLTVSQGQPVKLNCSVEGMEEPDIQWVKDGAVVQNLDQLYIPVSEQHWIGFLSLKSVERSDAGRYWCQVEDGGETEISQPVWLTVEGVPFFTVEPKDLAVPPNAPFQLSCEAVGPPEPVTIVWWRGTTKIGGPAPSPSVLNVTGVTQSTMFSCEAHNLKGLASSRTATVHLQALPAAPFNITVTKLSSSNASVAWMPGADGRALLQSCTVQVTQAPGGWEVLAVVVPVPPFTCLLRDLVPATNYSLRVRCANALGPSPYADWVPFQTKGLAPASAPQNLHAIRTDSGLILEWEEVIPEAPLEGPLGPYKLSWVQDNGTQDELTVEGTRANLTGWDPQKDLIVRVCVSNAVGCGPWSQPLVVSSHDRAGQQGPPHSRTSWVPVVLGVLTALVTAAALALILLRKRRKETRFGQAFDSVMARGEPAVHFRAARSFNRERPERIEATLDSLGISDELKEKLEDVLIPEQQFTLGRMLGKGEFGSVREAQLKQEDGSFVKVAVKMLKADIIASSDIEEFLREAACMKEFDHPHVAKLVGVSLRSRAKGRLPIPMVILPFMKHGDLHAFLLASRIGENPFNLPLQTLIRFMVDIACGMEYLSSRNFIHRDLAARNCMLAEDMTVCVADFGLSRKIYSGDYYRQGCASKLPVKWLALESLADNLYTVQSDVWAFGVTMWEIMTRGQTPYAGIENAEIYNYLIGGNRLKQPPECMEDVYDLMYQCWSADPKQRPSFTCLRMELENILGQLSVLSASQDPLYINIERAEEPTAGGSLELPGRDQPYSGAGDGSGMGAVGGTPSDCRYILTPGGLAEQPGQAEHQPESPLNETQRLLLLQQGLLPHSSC

[2] = biological target: panel of 468 diverse kinases (Homo sapiens, UniProt Q00532); settings: CDKL1; 1000 nM; read-out: Percent Control
[3] = biological target: panel of 468 diverse kinases (Homo sapiens, UniProt P00533, T790M); settings: EGFR(T790M); 1000 nM; read-out: Percent Control
panel of 468 diverse kinases (Homo sapiens, UniProt P00533, T790M), sequence (P00533 25-1210 T790M limits assumed): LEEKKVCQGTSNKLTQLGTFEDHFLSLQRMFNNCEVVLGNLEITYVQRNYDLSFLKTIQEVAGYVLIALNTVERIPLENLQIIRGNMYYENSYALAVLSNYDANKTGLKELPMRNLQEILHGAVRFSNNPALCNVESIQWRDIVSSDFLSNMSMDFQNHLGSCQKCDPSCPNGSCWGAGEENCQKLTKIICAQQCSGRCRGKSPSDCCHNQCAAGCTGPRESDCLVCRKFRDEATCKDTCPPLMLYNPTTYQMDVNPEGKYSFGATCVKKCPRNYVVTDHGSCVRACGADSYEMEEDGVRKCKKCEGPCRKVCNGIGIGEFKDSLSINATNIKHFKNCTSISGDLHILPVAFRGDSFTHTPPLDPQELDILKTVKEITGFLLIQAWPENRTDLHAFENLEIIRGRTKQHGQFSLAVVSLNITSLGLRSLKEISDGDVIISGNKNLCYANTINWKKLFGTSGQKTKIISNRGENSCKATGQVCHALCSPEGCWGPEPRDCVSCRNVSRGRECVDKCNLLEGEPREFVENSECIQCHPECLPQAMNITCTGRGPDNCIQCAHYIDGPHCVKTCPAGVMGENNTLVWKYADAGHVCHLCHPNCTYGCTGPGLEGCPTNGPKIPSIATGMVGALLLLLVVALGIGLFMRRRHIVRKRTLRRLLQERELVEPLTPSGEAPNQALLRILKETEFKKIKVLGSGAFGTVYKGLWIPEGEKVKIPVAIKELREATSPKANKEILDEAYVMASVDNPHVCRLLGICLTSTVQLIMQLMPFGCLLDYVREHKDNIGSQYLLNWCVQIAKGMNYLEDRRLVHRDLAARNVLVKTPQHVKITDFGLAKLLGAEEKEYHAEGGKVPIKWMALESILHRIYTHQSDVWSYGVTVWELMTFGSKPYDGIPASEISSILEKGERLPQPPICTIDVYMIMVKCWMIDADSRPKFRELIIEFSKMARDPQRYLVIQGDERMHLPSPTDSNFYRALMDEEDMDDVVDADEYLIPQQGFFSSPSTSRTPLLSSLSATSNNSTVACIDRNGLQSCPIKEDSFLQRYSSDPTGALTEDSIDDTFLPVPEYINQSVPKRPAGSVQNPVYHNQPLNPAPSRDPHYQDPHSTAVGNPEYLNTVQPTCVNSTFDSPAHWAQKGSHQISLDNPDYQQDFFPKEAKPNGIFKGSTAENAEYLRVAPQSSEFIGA

[4] = biological target: panel of 468 diverse kinases (Homo sapiens, UniProt P00519, F317L); settings: 1000 nM, read-out: Percent Control
[5] = biological target: panel of 468 diverse kinases (Homo sapiens, UniProt O14578); settings: CIT; 1000 nM; read-out: Percent Control
[6] = biological target: panel of 468 diverse kinases (Homo sapiens, UniProt Q8TDC3); settings: BRSK1; 1000 nM; read-out: Percent Control
[7] = biological target: panel of 468 diverse kinases (Homo sapiens, UniProt Q13523); settings: PRP4; 1000 nM; read-out: Percent Control
[8] = biological target: panel of 468 diverse kinases (Homo sapiens, UniProt P30291); settings: WEE1; 1000 nM; read-out: Percent Control
[9] = biological target: panel of 468 diverse kinases (Homo sapiens, UniProt O94806); settings: PRKD3; 1000 nM; read-out: Percent Control
[10] = biological target: panel of 468 diverse kinases (Homo sapiens, UniProt Q14289); settings: PYK2; 1000 nM; read-out: Percent Control
[11] = biological target: panel of 468 diverse kinases (Homo sapiens, UniProt P0C264); settings: SgK110; 1000 nM; read-out: Percent Control
[12] = biological target: panel of 468 diverse kinases (Homo sapiens, UniProt Q9BQI3); settings: EIF2AK1; 1000 nM; read-out: Percent Control
[13] = biological target: panel of 468 diverse kinases (Homo sapiens, UniProt P17612); settings: PKAC-alpha; 1000 nM; read-out: Percent Control
[14] = biological target: panel of 468 diverse kinases (Homo sapiens, UniProt P41743); settings: PRKCI; 1000 nM; read-out: Percent Control
[15] = biological target: panel of 468 diverse kinases (Homo sapiens, UniProt O00141); settings: SGK; 1000 nM; read-out: Percent Control
[16] = biological target: panel of 468 diverse kinases (Homo sapiens, UniProt Q13470); settings: TNK1; 1000 nM; read-out: Percent Control
[17] = biological target: panel of 468 diverse kinases (Homo sapiens, UniProt Q15418); settings: 1000 nM, read-out: Percent Control
[18] = biological target: panel of 468 diverse kinases (Homo sapiens, UniProt P06213); settings: INSR; 1000 nM; read-out: Percent Control
panel of 468 diverse kinases (Homo sapiens, UniProt P06213), sequence (P06213 28-758 limits assumed): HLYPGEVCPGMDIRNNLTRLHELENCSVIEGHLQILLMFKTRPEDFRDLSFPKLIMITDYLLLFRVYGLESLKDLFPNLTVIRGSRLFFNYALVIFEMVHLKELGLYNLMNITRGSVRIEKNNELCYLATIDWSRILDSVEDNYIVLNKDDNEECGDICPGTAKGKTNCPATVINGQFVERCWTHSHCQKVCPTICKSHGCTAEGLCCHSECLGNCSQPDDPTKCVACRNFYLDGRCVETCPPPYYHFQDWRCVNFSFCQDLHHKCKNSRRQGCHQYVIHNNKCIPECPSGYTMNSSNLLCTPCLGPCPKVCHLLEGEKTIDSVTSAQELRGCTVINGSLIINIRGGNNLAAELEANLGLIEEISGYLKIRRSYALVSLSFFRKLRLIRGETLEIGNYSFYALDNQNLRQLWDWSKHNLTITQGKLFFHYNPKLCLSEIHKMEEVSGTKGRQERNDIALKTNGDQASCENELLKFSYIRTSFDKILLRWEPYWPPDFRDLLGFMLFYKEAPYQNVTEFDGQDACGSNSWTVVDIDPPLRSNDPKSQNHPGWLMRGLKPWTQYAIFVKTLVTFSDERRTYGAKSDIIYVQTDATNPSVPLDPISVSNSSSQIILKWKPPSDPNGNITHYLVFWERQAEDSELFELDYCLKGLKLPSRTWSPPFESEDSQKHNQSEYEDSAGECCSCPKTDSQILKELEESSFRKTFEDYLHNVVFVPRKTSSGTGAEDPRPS
panel of 468 diverse kinases (Homo sapiens, UniProt P06213), sequence (P06213 763-1382 limits assumed): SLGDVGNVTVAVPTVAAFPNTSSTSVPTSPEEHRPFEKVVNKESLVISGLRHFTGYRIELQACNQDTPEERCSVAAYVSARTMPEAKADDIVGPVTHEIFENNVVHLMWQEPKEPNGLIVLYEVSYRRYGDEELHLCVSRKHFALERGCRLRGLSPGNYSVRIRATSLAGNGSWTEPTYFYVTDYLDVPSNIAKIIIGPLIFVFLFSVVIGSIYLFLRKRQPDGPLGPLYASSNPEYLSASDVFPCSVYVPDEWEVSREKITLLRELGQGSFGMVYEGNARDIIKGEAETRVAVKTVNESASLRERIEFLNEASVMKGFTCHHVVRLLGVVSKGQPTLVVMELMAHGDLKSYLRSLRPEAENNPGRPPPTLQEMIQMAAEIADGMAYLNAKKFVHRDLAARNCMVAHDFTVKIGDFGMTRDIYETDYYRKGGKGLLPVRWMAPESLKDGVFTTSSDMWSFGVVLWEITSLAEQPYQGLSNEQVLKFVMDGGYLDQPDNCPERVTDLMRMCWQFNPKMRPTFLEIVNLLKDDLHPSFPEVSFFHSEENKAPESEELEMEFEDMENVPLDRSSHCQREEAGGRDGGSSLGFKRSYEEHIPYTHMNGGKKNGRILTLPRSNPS

[19] = test system: panel of 468 diverse kinases
[20] = biological target: panel of 468 diverse kinases (Homo sapiens, UniProt O14920); settings: IKK-beta; 1000 nM; read-out: Percent Control
[21] = biological target: panel of 468 diverse kinases (Homo sapiens, UniProt Q99759); settings: MAP3K3; 1000 nM; read-out: Percent Control
[22] = biological target: panel of 468 diverse kinases (Homo sapiens, UniProt O00506); settings: YSK1; 1000 nM; read-out: Percent Control
[23] = biological target: panel of 468 diverse kinases (Homo sapiens, UniProt P45985); settings: MEK4; 1000 nM; read-out: Percent Control
panel of 468 diverse kinases (Homo sapiens, UniProt P45985), sequence (P45985 2-399 limits assumed): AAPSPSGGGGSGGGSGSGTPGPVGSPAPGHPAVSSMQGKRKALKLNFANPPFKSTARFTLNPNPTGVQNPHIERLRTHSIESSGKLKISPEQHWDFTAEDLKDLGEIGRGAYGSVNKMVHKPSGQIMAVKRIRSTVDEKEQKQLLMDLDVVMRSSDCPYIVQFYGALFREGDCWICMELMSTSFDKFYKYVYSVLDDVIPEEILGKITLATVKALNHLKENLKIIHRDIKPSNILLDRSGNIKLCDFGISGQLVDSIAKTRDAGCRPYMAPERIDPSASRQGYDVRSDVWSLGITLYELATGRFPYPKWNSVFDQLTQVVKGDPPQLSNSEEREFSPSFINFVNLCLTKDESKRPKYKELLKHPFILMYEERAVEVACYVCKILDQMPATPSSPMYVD

[24] = biological target: panel of 468 diverse kinases (Homo sapiens, UniProt Q08881); settings: ITK; 1000 nM; read-out: Percent Control
[25] = biological target: panel of 468 diverse kinases (Homo sapiens, UniProt P48736); settings: PIK3CG; 1000 nM; read-out: Percent Control
[26] = biological target: panel of 468 diverse kinases (Homo sapiens, UniProt O94804); settings: LOK; 1000 nM; read-out: Percent Control
[27] = biological target: panel of 468 diverse kinases (Homo sapiens, UniProt Q9UPZ9); settings: ICK; 1000 nM; read-out: Percent Control
[28] = biological target: panel of 468 diverse kinases (Homo sapiens, UniProt P09619); settings: PDGFRB; 1000 nM; read-out: Percent Control
panel of 468 diverse kinases (Homo sapiens, UniProt P09619), sequence (P09619 33-1106 limits assumed): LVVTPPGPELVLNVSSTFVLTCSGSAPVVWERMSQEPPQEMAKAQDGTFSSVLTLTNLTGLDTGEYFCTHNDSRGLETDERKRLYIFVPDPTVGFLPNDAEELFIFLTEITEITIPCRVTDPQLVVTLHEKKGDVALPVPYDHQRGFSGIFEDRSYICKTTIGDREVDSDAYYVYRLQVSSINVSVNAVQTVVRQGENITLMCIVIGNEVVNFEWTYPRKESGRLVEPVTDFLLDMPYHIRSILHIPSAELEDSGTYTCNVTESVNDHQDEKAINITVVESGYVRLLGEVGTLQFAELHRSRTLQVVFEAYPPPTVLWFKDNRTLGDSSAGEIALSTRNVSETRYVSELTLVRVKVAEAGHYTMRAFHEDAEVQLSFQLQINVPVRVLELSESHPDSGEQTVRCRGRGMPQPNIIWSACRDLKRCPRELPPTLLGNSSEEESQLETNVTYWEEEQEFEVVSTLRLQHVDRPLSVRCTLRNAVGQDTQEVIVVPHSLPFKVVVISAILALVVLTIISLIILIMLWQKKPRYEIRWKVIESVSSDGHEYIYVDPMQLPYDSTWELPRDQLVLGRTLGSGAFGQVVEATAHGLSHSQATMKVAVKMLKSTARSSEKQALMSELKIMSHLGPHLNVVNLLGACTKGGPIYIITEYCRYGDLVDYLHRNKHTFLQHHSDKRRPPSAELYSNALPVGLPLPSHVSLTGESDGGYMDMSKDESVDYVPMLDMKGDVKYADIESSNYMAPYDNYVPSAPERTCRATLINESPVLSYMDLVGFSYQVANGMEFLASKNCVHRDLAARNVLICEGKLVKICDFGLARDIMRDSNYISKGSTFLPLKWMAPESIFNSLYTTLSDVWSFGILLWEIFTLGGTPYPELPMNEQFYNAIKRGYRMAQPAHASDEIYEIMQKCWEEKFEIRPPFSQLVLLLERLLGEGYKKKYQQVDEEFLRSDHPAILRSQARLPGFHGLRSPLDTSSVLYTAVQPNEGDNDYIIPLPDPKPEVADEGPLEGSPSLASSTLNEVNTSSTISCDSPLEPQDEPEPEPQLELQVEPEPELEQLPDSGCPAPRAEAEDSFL

[29] = biological target: panel of 468 diverse kinases (Homo sapiens, UniProt P51957); settings: NEK4; 1000 nM; read-out: Percent Control
[30] = biological target: panel of 468 diverse kinases (Homo sapiens, UniProt P00519); settings: 1000 nM, read-out: Percent Control
[31] = biological target: panel of 468 diverse kinases (Homo sapiens, UniProt Q13163); settings: MEK5; 1000 nM; read-out: Percent Control

## COc1cc2nc(NC3CC3)nc(NC3CCN(C(C)C)CC3)c2cc1OC [Formula IV]
[1]
  remaining activity at 1 µM: 100%
[2]
  remaining activity at 1 µM: 53%
[3]
  remaining activity at 1 µM: 44%
[4]; ABL1 (F317L)-nonpho sphorylated
  remaining activity at 1 µM: 82%
[4]; ABL1(F317L)-phosphorylated
  remaining activity at 1 µM: 40%
[5]
  remaining activity at 1 µM: 100%
[6]
  remaining activity at 1 µM: 92%
[7]
  remaining activity at 1 µM: 84%
[8]
  remaining activity at 1 µM: 100%
[9]
  remaining activity at 1 µM: 91%
[10]
  remaining activity at 1 µM: 93%
[11]
  remaining activity at 1 µM: 97%
[12]
  remaining activity at 1 µM: 73%
[13]
  remaining activity at 1 µM: 85%
[14]
  remaining activity at 1 µM: 71%
[15]
  remaining activity at 1 µM: 68%
[16]
  remaining activity at 1 µM: 67%
[17]; RSK1(Kin.Dom.1-N-terminal)
  remaining activity at 1 µM: 93%
[17]; RSK1(Kin.Dom.2-C-terminal)
  remaining activity at 1 µM: 98%
[18]
  remaining activity at 1 µM: 57%
[19]
  Percent Control: 98% and 49% and 80% and 92% and 56% and 57%
  kinase selectivity using KINOMEscan: extremely high kinase selectivity
[20]
  remaining activity at 1 µM: 66%
[21]
  remaining activity at 1 µM: 55%
[22]
  remaining activity at 1 µM: 98%
[23]
  remaining activity at 1 µM: 84%
[24]
  remaining activity at 1 µM: 96%
[25]
  remaining activity at 1 µM: 83%
[26]
  remaining activity at 1 µM: 90%
[27]
  remaining activity at 1 µM: 100%
[28]
  remaining activity at 1 µM: 93%
[29]
  remaining activity at 1 µM: 69%
[30]; ABL1-nonphosphorylated
  remaining activity at 1 µM: 91%
[30]; ABL1-phosphorylated
  remaining activity at 1 µM: 88%
[31]
  remaining activity at 1 µM: 60%
